What was measured:
Z-138 cell line = assay: Z-138 Proliferation Assay (Cell Titer Glo, 5 days); assay type: cell-based; conditions: Homo sapiens, Z-138, 120 h, Z-138 cells
Description: [formula] Z-138 Proliferation Assay
Z-138 suspension cells were purchased from ATCC (American Type Culture Collection, Manassas, Va.). RPMI/Glutamax medium, penicillin-streptomycin, heat inactivated fetal bovine serum were purchased from Life Technologies, Grand Island, N.Y., USA. V-bottom polypropylene 384-well plates were purchased from Greiner Bio-One, Monroe, N.C., USA. Cell culture 384-well white opaque plates were purchased from Perkin Elmer, Waltham, Mass., USA. Cell-Titer Glo® was purchased from Promega Corporation, Madison, Wis., USA. SpectraMax M5 plate reader was purchased from Molecular Devices LLC, Sunnyvale, Calif., USA.
Z-138 suspension cells were maintained in growth medium (RPMI 1640 supplemented with 10% v/v heat inactivated fetal bovine serum and cultured at 37° C. under 5% CO2 Under assay conditions, cells were incubated in assay medium (RPMI 1640 supplemented with 10% v/v heat inactivated fetal bovine serum and 100 units/mL penicillin-streptomycin) at 37° C. under 5% CO2.
For the assessment of the effect of compounds on the proliferation of the Z-138 cell line, exponentially growing cells were plated in 384-well white opaque plates at a density of 10,000 cells/ml in a final volume of 50 μl of assay medium. A compound source plate was prepared by performing triplicate nine-point 3-fold serial dilutions in DMSO, beginning at 10 mM (final top concentration of compound in the assay was 20 μM and the DMSO was 0.2%). A 100 nL aliquot from the compound stock plate was added to its respective well in the cell plate. […] After addition of compounds, assay plates were incubated for 5 days at 37° C., 5% CO2, relative humidity >90%.
Cell viability was measured by quantitation of ATP present in the cell cultures, adding 35 μl of Cell Titer Glo® reagent to the cell plates. Luminescence was read in the SpectraMax M5 microplate reader. The concentration of compound inhibiting cell viability by 50% was determined using a 4-parametric fit of the normalized dose response curves.

PRMT5/MEP50 = PRMT5/MEP50 (Homo sapiens (Human), UniProt O14744); assay: PRMT5 Biochemical Assay (PRMT5/MEP50 enzyme assay on peptide substrate, 3H-SAM Flashplate); conditions: PRMT5 biochemical assay; read-out: Biochemical IC50
Sequence of PRMT5/MEP50 (O14744 other isoform, or with tags, fused parts or gaps): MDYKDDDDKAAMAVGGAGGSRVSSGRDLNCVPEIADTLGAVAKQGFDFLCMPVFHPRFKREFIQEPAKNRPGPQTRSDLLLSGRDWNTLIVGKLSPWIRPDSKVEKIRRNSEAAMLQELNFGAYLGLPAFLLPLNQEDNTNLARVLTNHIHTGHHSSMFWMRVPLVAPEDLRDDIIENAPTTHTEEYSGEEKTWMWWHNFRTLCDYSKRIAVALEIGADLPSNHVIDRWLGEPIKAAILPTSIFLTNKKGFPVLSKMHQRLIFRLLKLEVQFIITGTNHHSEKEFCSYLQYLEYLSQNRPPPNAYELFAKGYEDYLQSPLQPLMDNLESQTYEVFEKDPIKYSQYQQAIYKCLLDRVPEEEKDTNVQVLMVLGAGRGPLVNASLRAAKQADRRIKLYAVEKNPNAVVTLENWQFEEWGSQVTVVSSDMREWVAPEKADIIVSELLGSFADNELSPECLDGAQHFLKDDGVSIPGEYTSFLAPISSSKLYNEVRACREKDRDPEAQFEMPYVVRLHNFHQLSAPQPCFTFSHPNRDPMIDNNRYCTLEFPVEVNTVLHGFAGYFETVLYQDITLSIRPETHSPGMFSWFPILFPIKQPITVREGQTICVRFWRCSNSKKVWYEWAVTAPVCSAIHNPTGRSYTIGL
Sequence of PRMT5/MEP50 (Q9BQA1 other isoform, or with tags, fused parts or gaps partner): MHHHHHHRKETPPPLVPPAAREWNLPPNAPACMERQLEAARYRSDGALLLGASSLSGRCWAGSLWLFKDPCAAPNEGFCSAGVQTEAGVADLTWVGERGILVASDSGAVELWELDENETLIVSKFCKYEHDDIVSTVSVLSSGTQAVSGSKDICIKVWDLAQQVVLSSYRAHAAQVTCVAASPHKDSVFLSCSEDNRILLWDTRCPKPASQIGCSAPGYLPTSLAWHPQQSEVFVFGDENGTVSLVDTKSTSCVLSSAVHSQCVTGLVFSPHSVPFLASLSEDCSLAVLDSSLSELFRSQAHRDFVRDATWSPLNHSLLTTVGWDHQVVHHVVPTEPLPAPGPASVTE
Description: S-adenosylmethionine (SAM), S-adenosylhomocysteine (SAH), bicine, KCl, Tween20, dimethylsulfoxide (DMSO), bovine skin gelatin (BSG), and Tris(2-carboxyethyl)phosphine hydrochloride solution (TCEP) were purchased from Sigma-Aldrich at the highest level of purity possible. ^3H-SAM was purchase from American Radiolabeled Chemicals with a specific activity of 80 Ci/mmol. 384-well streptavidin Flashplates were purchased from PerkinElmer.
Peptide representative of human histone H4 residues 1-15 was synthesized with a C-terminal linker-affinity tag motif and a C-terminal amide cap by 21st Century Biochemicals. […] The sequence was Ac-[…][K-Biot]-amide (SEQ ID NO.:3).
Full-length human MEP50 (NM_024102) clone was amplified from a human testis cDNA library incorporating a 5′ sequence encoding a 6-histidine tag (MHHHHHH)(SEQ ID NO.:5) fused directly to Arg 2 of MEP50. The amplified genes were sublconed into pENTR/D/TEV (Life Technologies) and subsequently transferred by Gateway™ attL×attR recombination to pDEST8 baculvirus expression vector (Life Technologies).
Recombinant baculovirus and Baculovirus-Infected Insect Cells (BIIC) were generated according to Bac-to-Bac kit instructions (Life Technologies) and Wasilko, 2006, respectively. Protein over-expression was accomplished by infecting exponentially growing Spodoptera frugiperda (SF9) cell culture at 1.2×10^6 cell/ml with a 5000 fold dilution of BIIC stock. Infections were carried out at 27° C. for 72 hours, harvested by centrifugation, and stored at −80° C. for purification.
Flag-PRMT5/6His-MeP50 was eluted with 300 mM Imidazole in the same buffer. […] Reference: Wasilko, D. J. and S. E. Lee: “TIPS: titerless infected-cells preservation and scale-up” Bioprocess J., 5 (2006), pp. 29-32.
General Procedure for PRMT5/MEP50 Enzyme Assays on Peptide Substrates.
The assays were all performed in a buffer consisting of 20 mM Bicine (pH=7.6), 1 mM TCEP, 0.005% BSG, and 0.002% Tween20, prepared on the day of use. Compounds in 100% DMSO (1 ul) were spotted into a polypropylene 384-well V-bottom plates (Greiner) using a Platemate Plus outfitted with a 384-channel head (Thermo Scientific). DMSO (1 ul) was added to Columns 11, 12, 23, 24, rows A-H for the maximum signal control and 1 ul of SAH, a known product and inhibitor of PRMT5/MEP50, was added to columns 11, 12, 23, 24, rows I-P for the minimum signal control. A cocktail (40 ul) containing the PRMT5/MEP50 enzyme and the peptide was added by Multidrop Combi (Thermo-Fisher). The compounds were allowed to incubate with PRMT5/MEP50 for 30 min at 25 degrees Celsius, then a cocktail (10 ul) containing ^3H-SAM was added to initiate the reaction (final volume=51 ul).

[1] = test system: symmetric di-methyl arginine in Z-138 cells; assay: Z-138 Methylation Assay (In Cell Western for symmetric di-methyl arginine and DNA content); assay type: cell-based; conditions: Homo sapiens, Z-138, Z-138 cells, read-out: ICW EC50
Description: [formula] Where top and bottom are the normally allowed to float, but may be fixed at 100 or 0 respectively in a 3-parameter fit. The Hill Coefficient normally allowed to float but may also be fixed at 1 in a 3-parameter fit. Y is the % inhibition and X is the compound concentration. Z-138 Methylation Assay
Z-138 suspension cells were purchased from ATCC (American Type Culture Collection, Manassas, Va.). RPMI/Glutamax medium, penicillin-streptomycin, heat inactivated fetal bovine serum, and D-PBS were purchased from Life Technologies, Grand Island, N.Y., USA. Odyssey blocking buffer, 800CW goat anti-rabbit IgG (H+L) antibody, and Licor Odyssey infrared scanner were purchased from Licor Biosciences, Lincoln, Nebr., USA. Symmetric di-methyl arginine antibody was purchased from EMD Millipore, Billerica, Mass., USA. 16% Paraformaldehyde was purchased from Electron Microscopy Sciences, Hatfield, Pa., USA.
Z-138 suspension cells were maintained in growth medium (RPMI 1640 supplemented with 10% v/v heat inactivated fetal bovine serum and 100 units/mL penicillin-streptomycin) and cultured at 37° C. under 5% CO2.
Cell Treatment, in Cell Western (ICW) for Detection of Symmetric Di-Methyl Arginine and DNA Content.
Z-138 cells were seeded in assay medium at a concentration of 50,000 cells per mL to a 384-well cell culture plate with 50 μL per well. Compound (100 nL) from 384 well source plates was added directly to 384 well cell plate. Plates were incubated at 37° C., 5% CO2 for 96 hours. After four days of incubation, 40 μL of cells from incubated plates were added to poly-D-lysine coated 384 well culture plates (BD Biosciences 356697). Plates were incubated at room temperature for 30 minutes then incubated at 37° C., 5% CO2 for 5 hours. After the incubation, 40 μL per well of 8% paraformaldehyde in PBS (16% paraformaldahyde was diluted to 8% in PBS) was added to each plate and incubated for 30 minutes. Plates were transferred to a Biotek 405 plate washer and washed 5 times with 100 μL per well of wash buffer (1×PBS with 0.1% Triton X-100 (v/v)). Next 30 μL per well of Odyssey blocking buffer were added to each plate and incubated 1 hour at room temperature. Blocking buffer was removed and 20 μL per well of primary antibody was added (symmetric di-methyl arginine diluted 1:100 in Odyssey buffer with 0.1% Tween 20 (v/v)) and plates were incubated overnight (16 hours) at 4° C. Plates were washed 5 times with 100 μL per well of wash buffer. Next 20 μL per well of secondary antibody was added (1:200 800CW goat anti-rabbit IgG (H+L) antibody, 1:1000 DRAQ5 (Biostatus limited) in Odyssey buffer with 0.1% Tween 20 (v/v)) and incubated for 1 hour at room temperature. The plates were washed 5 times with 100 μL per well wash buffer then 1 time with 100 μL per well of water. Plates were allowed to dry at room temperature then imaged on the Licor Odyssey machine which measures integrated intensity at 700 nm and 800 nm wavelengths. Both 700 and 800 channels were scanned.
First, the ratio for each well was determined by:
Each plate included fourteen control wells of DMSO only treatment (minimum inhibition) as well as fourteen control wells for maximum inhibition treated with 3 μM of a reference compound (Background wells). The average of the ratio values for each control type was calculated and used to determine the percent inhibition for each test well in the plate. Reference compound was serially diluted three-fold in DMSO for a total of nine test concentrations, beginning at 3 μM. Percent inhibition was determined and IC50 curves were generated using triplicate wells per concentration of compound. […]

Compound | IC50 (PRMT5/MEP50) [nM] | EC50 [1] [nM] | EC50 (Z-138 cell line) [nM]
O=C(COc1cccc2cccnc12)NCC(O)CN1CCc2ccccc2C1 (stereo not drawn) [Compound 6, N-(3-(3,4-dihydroisoquinolin-2(1H)-yl)-2-hydroxypropyl)-2-(quinolin-8-yloxy)acetamide] | < 100 | – | 101 to 1000
O=C(COc1cccc2cccnc12)NC[C@H](O)CN1CCc2ccccc2C1 [Compound 44, (S)—N-(3-(3,4-dihydroisoquinolin-2(1H)-yl)-2-hydroxypropyl)-2-(quinolin-8-yloxy)acetamide] | – | 101 to 1000 | –
O=C(COc1cccc2cccnc12)NC[C@@H](O)CN1CCc2ccccc2C1 [Compound 45, (R)—N-(3-(3,4-dihydroisoquinolin-2(1H)-yl)-2-hydroxypropyl)-2-(quinolin-8-yloxy)acetamide] | < 100 | – | 101 to 1000
O=C(COc1ccccc1N1CCNCC1)NCC(O)CN1CCc2ccccc2C1 (stereo not drawn) [Compound 79] | < 100 | – | 1000 to 10000
O=C(COc1cccc(-n2ccnc2)c1)NC[C@@H](O)CN1CCc2ccccc2C1 [Compound 194] | 101 to 1000 | > 1000 | > 20000
O=C(COc1cccc(N2CCNCC2)c1)NC[C@@H](O)CN1CCc2ccccc2C1 [Compound 197] | < 100 | 101 to 1000 | 10000 to 50000
CC(=O)Nc1cccc(OCC(=O)NC[C@@H](O)CN2CCc3ccccc3C2)c1C1CCCNC1 (stereo partly drawn) [Compound 199] | 1000 to 10000 | > 1000 | > 20000
CNCCN(C)S(=O)(=O)c1ccccc1OCC(=O)NC[C@@H](O)CN1CCc2ccccc2C1 [Compound 201] | < 100 | < 100 | 1000 to 10000
CC1CN(C)CCN1S(=O)(=O)c1ccccc1OCC(=O)NC[C@@H](O)CN1CCc2ccccc2C1 (stereo partly drawn) [Compound 203] | 101 to 1000 | 101 to 1000 | > 20000
[2H]C1([2H])Cc2ccccc2C([2H])([2H])N1C[C@@H](O)CNC(=O)CCc1nc2ccccc2[nH]1 [Compound 251] | 101 to 1000 | – | –
Cn1c(CCC(=O)NC[C@@H](O)CN2CCc3ccccc3C2)nc2ccccc21 [Compound 268] | 1000 to 10000 | – | –
O=C(COc1ccccc1N1CCNCC1)NC[C@@H](O)CN1CCc2ccccc2C1 [Compound 270] | 1000 to 10000 | – | –
CN1CC[C@@H](CN(C)S(=O)(=O)c2ccccc2OCC(=O)NC[C@@H](O)CN2CCc3ccccc3C2)C1 [Compound 272] | < 100 | – | –

Now from value to compound, other results behind:

IC50 (PRMT5/MEP50) [nM] | EC50 [1] [nM] | Compound | EC50 (Z-138 cell line) [nM]
– | 101 to 1000 | O=C(COc1ccccc1C1CCCNC1)NCC(O)CN1CCc2ccccc2C1 (stereo not drawn) [Compound 117] | 1000 to 10000
1000 to 10000 | > 1000 | O=C(COc1cccc(-c2c[nH]cn2)c1)NC[C@@H](O)CN1CCc2ccccc2C1 [Compound 195] | > 20000
101 to 1000 | > 1000 | O=C(COc1cccc(C(=O)NCCNCCO)c1)NC[C@@H](O)CN1CCc2ccccc2C1 [Compound 196] | > 20000
< 100 | > 1000 | CN(CCN)S(=O)(=O)c1ccccc1OCC(=O)NC[C@@H](O)CN1CCc2ccccc2C1 [Compound 198] | > 20000
1000 to 10000 | > 1000 | O=C(CCc1nc2ccccc2o1)NC[C@@H](O)CN1CCc2ccccc2C1 [Compound 200] | > 20000
< 100 | 101 to 1000 | CC1CNCCN1S(=O)(=O)c1ccccc1OCC(=O)NC[C@@H](O)CN1CCc2ccccc2C1 (stereo partly drawn) [Compound 202] | 10000 to 50000
101 to 1000 | > 1000 | CC(Oc1ccccc1[C@@H]1CCCNC1)C(=O)NC[C@@H](O)CN1CCc2ccccc2C1 (stereo partly drawn) [Compound 204] | 10000 to 50000
1000 to 10000 | > 1000 | CC(Oc1ccccc1[C@H]1CCCNC1)C(=O)NC[C@@H](O)CN1CCc2ccccc2C1 (stereo partly drawn) [Compound 205] | 10000 to 50000
1000 to 10000 | – | O=C(COc1ccccc1[C@H]1CCCCN1)NC[C@@H](O)CN1CCc2ccccc2C1 [Compound 235] | –
1000 to 10000 | – | O=C(CCn1cnc2ccccc21)NC[C@H](O)CN1CCc2ccccc2C1 [Compound 248] | –
– | < 100 | CN(C)S(=O)(=O)c1c(OCC(=O)NC[C@@H](O)CN2CCc3ccccc3C2)cccc1N1CCNCC1 [Compound 252] | < 100
1000 to 10000 | – | N-(3-(3,4-dihydroisoquinolin-2(1H)-yl)-2-hydroxypropyl)-2-((5,6,7,8-tetrahydronaphthalen-1-yl)oxy)acetamide [Compound 62] | –

Source: US9745291B2, “PRMT5 inhibitors containing a dihydro- or tetrahydroisoquinoline and uses thereof” (Epizyme, Inc., priority 2012, dated 2017)
